Experimental data reported in patent US9828393B2, “Silylalkyloxyaryl compounds and methods for treating cancer” (THE REGENTS OF THE UNIVERSITY OF COLORADO, a body corporate, priority 2013, dated 2017).
Where two headings read alike, the source gives them in different places.

What was measured:
[1] = system: HL-60(TB); experiment: NCI-60 cell line screen (SRB), HL-60(TB); assay type: cell-based, human
Description: (§1) Drug sensitivity data are provided as GI50s (concentrations required to inhibit growth by 50%). The first row of the text file identifies cell lines, separated by tabs. Subsequent rows contain compound number, compound name, and GI50 for each cell line, each separated by a tab. […] For a typical screening experiment, cells are inoculated into 96 well microtiter plates in 100 μL at plating densities ranging from 5,000 to 40,000 cells/well depending on the doubling time of individual cell lines. After cell inoculation, the microtiter plates are incubated at 37° C., 5% CO2, 95% air and 100% relative humidity for 24 h prior to addition of experimental drugs. After 24 h, two plates of each cell line are fixed in situ with TCA, to represent a measurement of the cell population for each cell line at the time of drug addition (Tz). Experimental drugs are solubilized in dimethyl sulfoxide at 400-fold the desired final maximum test concentration and stored frozen prior to use. At the time of drug addition, an aliquot of frozen concentrate is thawed and diluted to twice the desired final maximum test concentration with complete medium containing 50 μg/ml gentamicin. Additional four, 10-fold or one-half log serial dilutions are made to provide a total of five drug concentrations plus control. Aliquots of 100 μl of these different drug dilutions are added to the appropriate microtiter wells already containing 100 μl of medium, resulting in the required final drug concentrations. Following drug addition, the plates are incubated for an additional 48 h at 37° C., 5% CO2, 95% air, and 100% relative humidity. For adherent cells, the assay is terminated by the addition of cold TCA. Cells are fixed in situ by the gentle addition of 50 μl of cold 50% (w/v) TCA (final concentration, 10% TCA) and incubated for 60 minutes at 4° C. The supernatant is discarded, and the plates are washed five times with tap water and air dried. Sulforhodamine B (SRB) solution (100 μl) at 0.4% (w/v) in 1% acetic acid is added to each well, and plates are incubated for 10 minutes at room temperature. After staining, unbound dye is removed by washing five times with 1% acetic acid and the plates are air dried. Bound stain is subsequently solubilized with 10 mM trizma base, and the absorbance is read on an automated plate reader at a wavelength of 515 nm. For suspension cells, the methodology is the same except that the assay is terminated by fixing settled cells at the bottom of the wells by gently adding 50 μl of 80% TCA (final concentration, 16% TCA). Using the seven absorbance measurements [time zero, (Tz), control growth, (C), and test growth in the presence of drug at the five concentration levels (Ti)], the percentage growth is calculated at each of the drug concentrations levels. […]

[2] = system: RPMI-8226; experiment: NCI-60 cell line screen (SRB), RPMI-8226; assay type: cell-based, human
Description: as §1

[3] = system: HOP-92; experiment: NCI-60 cell line screen (SRB), HOP-92; assay type: cell-based, human
Description: as §1

[4] = system: Non-Small Cell Lung Cancer cell lines; experiment: NCI-60 cell line screen, Non-Small Cell Lung Cancer panel average; assay type: cell-based, human; details: read-out: GI50 Average
Description: as §1

[5] = system: SW-620; experiment: NCI-60 cell line screen (SRB), SW-620; assay type: cell-based, human
Description: as §1

[6] = system: Colon Cancer cell lines; experiment: NCI-60 cell line screen, Colon Cancer panel average; assay type: cell-based, human; details: read-out: GI50 Average
Description: as §1

[7] = system: SF-268; experiment: NCI-60 cell line screen (SRB), SF-268; assay type: cell-based, human
Description: as §1

[8] = system: CNS Cancer cell lines; experiment: NCI-60 cell line screen, CNS Cancer panel average; assay type: cell-based, human; details: read-out: GI50 Average
Description: as §1

[9] = system: MALME-3M; experiment: NCI-60 cell line screen (SRB), MALME-3M; assay type: cell-based, human
Description: as §1

[10] = system: MDA-MB-435; experiment: NCI-60 cell line screen (SRB), MDA-MB-435; assay type: cell-based, human
Description: as §1

[11] = system: OVCAR-3; experiment: NCI-60 cell line screen (SRB), OVCAR-3; assay type: cell-based, human
Description: as §1

[12] = system: OVCAR-5; experiment: NCI-60 cell line screen (SRB), OVCAR-5; assay type: cell-based, human
Description: as §1

[13] = system: OVCAR-8; experiment: NCI-60 cell line screen (SRB), OVCAR-8; assay type: cell-based, human
Description: as §1

[14] = system: 786-0; experiment: NCI-60 cell line screen (SRB), 786-0; assay type: cell-based, human
Description: as §1

[15] = system: ACHN; experiment: NCI-60 cell line screen (SRB), ACHN; assay type: cell-based, human
Description: as §1

[16] = system: Renal Cancer cell lines; experiment: NCI-60 cell line screen, Renal Cancer panel average; assay type: cell-based, human; details: read-out: GI50 Average
Description: as §1

[17] = system: MDA-MB-231/ATCC; experiment: NCI-60 cell line screen (SRB), MDA-MB-231/ATCC; assay type: cell-based, human
Description: as §1

[18] = system: HS 578T; experiment: NCI-60 cell line screen (SRB), HS 578T; assay type: cell-based, human
Description: as §1

[19] = molecular target: EZH2 (Enhancer of Zeste Homologue 2), a Histone H3 Lys 27 (H3K27) methyltransferase (Homo sapiens, UniProt Q15910); experiment: OIDD in vitro target-based assay, EZH2 inhibitory activity; assay type: biochemical; details: OIDD screen; FIG. 1
Chain of EZH2 (Enhancer of Zeste Homologue 2), a Histone H3 Lys 27 (H3K27) methyltransferase (Q15910 whole entry): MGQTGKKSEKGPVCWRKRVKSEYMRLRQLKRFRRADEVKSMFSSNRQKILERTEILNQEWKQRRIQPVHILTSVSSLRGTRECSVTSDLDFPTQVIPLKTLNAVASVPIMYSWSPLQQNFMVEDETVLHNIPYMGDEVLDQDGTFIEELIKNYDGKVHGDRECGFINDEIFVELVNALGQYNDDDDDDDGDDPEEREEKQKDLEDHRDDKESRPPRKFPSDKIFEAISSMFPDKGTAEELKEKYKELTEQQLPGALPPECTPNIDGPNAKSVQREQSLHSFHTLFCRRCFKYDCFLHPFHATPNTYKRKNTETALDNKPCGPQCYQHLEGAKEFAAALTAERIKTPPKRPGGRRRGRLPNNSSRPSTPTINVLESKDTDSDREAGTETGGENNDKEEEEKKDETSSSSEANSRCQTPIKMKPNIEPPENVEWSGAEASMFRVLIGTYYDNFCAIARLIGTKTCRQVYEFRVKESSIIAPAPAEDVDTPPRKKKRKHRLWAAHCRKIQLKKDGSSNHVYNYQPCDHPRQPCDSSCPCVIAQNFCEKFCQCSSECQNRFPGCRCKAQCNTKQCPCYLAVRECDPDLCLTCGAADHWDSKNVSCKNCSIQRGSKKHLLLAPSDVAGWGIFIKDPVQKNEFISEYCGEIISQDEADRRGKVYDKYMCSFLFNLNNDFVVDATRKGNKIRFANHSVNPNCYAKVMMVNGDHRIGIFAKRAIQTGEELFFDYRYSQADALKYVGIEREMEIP
Chain of EZH2 (Enhancer of Zeste Homologue 2), a Histone H3 Lys 27 (H3K27) methyltransferase (O75530 whole entry partner): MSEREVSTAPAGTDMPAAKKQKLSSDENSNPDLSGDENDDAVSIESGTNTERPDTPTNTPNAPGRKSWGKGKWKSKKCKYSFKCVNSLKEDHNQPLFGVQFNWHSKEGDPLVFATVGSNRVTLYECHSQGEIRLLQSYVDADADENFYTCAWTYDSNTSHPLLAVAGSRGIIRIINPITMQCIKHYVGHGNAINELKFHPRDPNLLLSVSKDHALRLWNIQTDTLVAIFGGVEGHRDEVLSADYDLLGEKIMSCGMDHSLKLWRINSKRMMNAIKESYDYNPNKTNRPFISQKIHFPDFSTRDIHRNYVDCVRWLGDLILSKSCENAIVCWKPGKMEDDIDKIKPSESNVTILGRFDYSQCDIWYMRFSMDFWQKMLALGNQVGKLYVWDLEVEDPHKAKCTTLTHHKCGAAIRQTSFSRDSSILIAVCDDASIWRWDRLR
Chain of EZH2 (Enhancer of Zeste Homologue 2), a Histone H3 Lys 27 (H3K27) methyltransferase (Q15022 whole entry partner): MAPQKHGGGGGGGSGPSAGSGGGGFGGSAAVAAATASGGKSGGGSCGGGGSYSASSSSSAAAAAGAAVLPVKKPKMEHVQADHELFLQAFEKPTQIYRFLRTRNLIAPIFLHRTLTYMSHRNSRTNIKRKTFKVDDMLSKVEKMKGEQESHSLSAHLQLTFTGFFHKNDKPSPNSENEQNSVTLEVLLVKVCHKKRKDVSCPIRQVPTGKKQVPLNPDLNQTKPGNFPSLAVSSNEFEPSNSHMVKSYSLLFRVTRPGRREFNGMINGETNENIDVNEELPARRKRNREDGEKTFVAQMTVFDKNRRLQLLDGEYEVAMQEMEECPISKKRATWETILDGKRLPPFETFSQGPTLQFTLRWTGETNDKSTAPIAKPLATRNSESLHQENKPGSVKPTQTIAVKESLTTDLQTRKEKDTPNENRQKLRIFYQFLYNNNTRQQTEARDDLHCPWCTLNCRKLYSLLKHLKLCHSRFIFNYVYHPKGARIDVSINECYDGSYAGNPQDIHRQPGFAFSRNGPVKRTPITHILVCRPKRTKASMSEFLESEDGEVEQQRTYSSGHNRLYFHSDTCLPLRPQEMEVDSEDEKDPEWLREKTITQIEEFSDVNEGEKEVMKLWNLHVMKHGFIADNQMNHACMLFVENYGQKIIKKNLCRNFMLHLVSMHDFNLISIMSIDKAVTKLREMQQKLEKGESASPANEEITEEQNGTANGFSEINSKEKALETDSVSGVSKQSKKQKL
Description: An organosilicon compound of the invention (GH1503) was tested using the in vitro target-based assays through an open innovation drug discovery program (OIDD). The organosilicon compound tested was given OIDD number 2351349879. […] This enzyme plays a critical role in regulating gene expression and is highly expressed in a wide range of cancer types, including bladder, breast, colon, lung, melanoma, pancreatic cancer, melanoma, sarcoma and lymphomas.

Structure (SMILES): CCCC[Si](C)(C)COc1ccc(C(=O)N[C@@H](Cc2ccc(OCc3c(Cl)cccc3Cl)cc2)C(=O)NC2CC(C)(C)NC(C)(C)C2)cc1 [GH1503, N^α-{4-[(butyldimethylsilyl)methoxy]-benzoyl}-N-(2,2,6,6-tetramethylpiperidin-4-yl)-[O-(2,6-dichlorobenzyl)-L-tyrosinamide]]
- GI50 ([1]; Homo sapiens, Leukemia, HL-60(TB), 48 h drug incubation, read-out: GI50): 790 nM
- GI50 ([2]; Homo sapiens, Leukemia, RPMI-8226, 48 h drug incubation, read-out: GI50): 893 nM
- GI50 ([3]; Homo sapiens, Non-Small Cell Lung Cancer, HOP-92, 48 h drug incubation, read-out: GI50): 1110 nM
- GI50 ([4]; Homo sapiens, average over Non-Small Cell Lung Cancer panel): 1210 nM
- GI50 ([5]; Homo sapiens, Colon Cancer, SW-620, 48 h drug incubation, read-out: GI50): 318 nM
- GI50 ([6]; Homo sapiens, average over Colon Cancer panel): 442 nM
- GI50 ([7]; Homo sapiens, CNS Cancer, SF-268, 48 h drug incubation, read-out: GI50): 611 nM
- GI50 ([8]; Homo sapiens, average over CNS Cancer panel): 1100 nM
- GI50 ([9]; Homo sapiens, Melanoma, MALME-3M, 48 h drug incubation, read-out: GI50): 1200 nM
- GI50 ([10]; Homo sapiens, Melanoma, MDA-MB-435, 48 h drug incubation, read-out: GI50): 250 nM
- GI50 ([11]; Homo sapiens, Ovarian Cancer, OVCAR-3, 48 h drug incubation, read-out: GI50): 761 nM
- GI50 ([12]; Homo sapiens, Ovarian Cancer, OVCAR-5, 48 h drug incubation, read-out: GI50): 1620 nM
- GI50 ([13]; Homo sapiens, Ovarian Cancer, OVCAR-8, 48 h drug incubation, read-out: GI50): 263 nM
- GI50 ([14]; Homo sapiens, Renal Cancer, 786-0, 48 h drug incubation, read-out: GI50): 468 nM
- GI50 ([15]; Homo sapiens, Renal Cancer, 48 h drug incubation, read-out: GI50): 478 nM
- GI50 ([16]; Homo sapiens, average over Renal Cancer panel): 1050 nM
- GI50 ([17]; Homo sapiens, Breast Cancer, MDA-MB-231/ATCC, 48 h drug incubation, read-out: GI50): 494 nM
- GI50 ([18]; Homo sapiens, Breast Cancer, HS 578T, 48 h drug incubation, read-out: GI50): 2010 nM
- IC50 [19]: in the micromolar range

Structure (SMILES): CCOP(=O)(OCC)C(NC(=O)[C@H](Cc1ccc(-c2ccccc2)cc1)NC(=O)c1ccc(OCCC[Si](C)(C)C)cc1)P(=O)(OCC)OCC [GH1505, N^α-{4-[3-(trimethylsilyl)propoxy]-benzoyl}-N-[bis(dietoxyphosphoryl)methyl]-(4-phenyl-L-phenylalaninamide)]
- GI50 ([1]; Leukemia, HL-60(TB), 48 h drug incubation, read-out: GI50): 2940 nM
- GI50 ([2]; Leukemia, RPMI-8226, 48 h drug incubation, read-out: GI50): 1970 nM
- GI50 ([3]; Non-Small Cell Lung Cancer, HOP-92, 48 h drug incubation, read-out: GI50): 2090 nM
- GI50 ([4]; average over Non-Small Cell Lung Cancer panel): 2620 nM
- GI50 ([5]; Colon Cancer, SW-620, 48 h drug incubation, read-out: GI50): 2190 nM
- GI50 ([6]; average over Colon Cancer panel): 2120 nM
- GI50 ([7]; CNS Cancer, SF-268, 48 h drug incubation, read-out: GI50): 2070 nM
- GI50 ([8]; average over CNS Cancer panel): 2010 nM
- GI50 ([9]; Melanoma, MALME-3M, 48 h drug incubation, read-out: GI50): 1930 nM
- GI50 ([10]; Melanoma, MDA-MB-435, 48 h drug incubation, read-out: GI50): 1900 nM
- GI50 ([11]; Ovarian Cancer, OVCAR-3, 48 h drug incubation, read-out: GI50): 1870 nM
- GI50 ([12]; Ovarian Cancer, OVCAR-5, 48 h drug incubation, read-out: GI50): 1710 nM
- GI50 ([13]; Ovarian Cancer, OVCAR-8, 48 h drug incubation, read-out: GI50): 2960 nM
- GI50 ([14]; Renal Cancer, 786-0, 48 h drug incubation, read-out: GI50): 2760 nM
- GI50 ([15]; Renal Cancer, 48 h drug incubation, read-out: GI50): 2270 nM
- GI50 ([16]; average over Renal Cancer panel): 2550 nM
- GI50 ([17]; Breast Cancer, MDA-MB-231/ATCC, 48 h drug incubation, read-out: GI50): 1620 nM
- GI50 ([18]; Breast Cancer, HS 578T, 48 h drug incubation, read-out: GI50): 2610 nM

Structure (SMILES): CC1(C)CC(NC(=O)[C@H](Cc2ccc(OCc3c(Cl)cccc3Cl)cc2)NC(=O)c2ccc(OCCC[Si](C)(C)C)cc2)CC(C)(C)N1 [GH1501, N^α-{4-[3-(trimethylsilyl)propoxy]-benzoyl}-N-(2,2,6,6-tetramethylpiperidin-4-yl)-[O-(2,6-dichlorobenzyl)-L-tyrosinamide]]
- GI50 ([1]; Homo sapiens, HL-60, 48 h): 813 nM
- GI50 ([2]; Homo sapiens, RPMI-8226, 48 h): 1320 nM
- GI50 ([3]; Homo sapiens, HOP-92, 48 h): 1170 nM
- GI50 ([4]; Homo sapiens): 1330 nM
- GI50 ([5]; Homo sapiens, SW-620, 48 h): 313 nM
- GI50 ([6]; Homo sapiens): 395 nM
- GI50 ([7]; Homo sapiens, SF-268, 48 h): 903 nM
- GI50 ([8]; Homo sapiens): 1190 nM
- GI50 ([9]; Homo sapiens, Malme-3M, 48 h): 1460 nM
- GI50 ([10]; Homo sapiens, MDA-MB-435, 48 h): 269 nM
- GI50 ([11]; Homo sapiens, OVCAR-3, 48 h): 1250 nM
- GI50 ([12]; Homo sapiens, OVCAR-5, 48 h): 1680 nM
- GI50 ([13]; Homo sapiens, OVCAR-8, 48 h): 268 nM
- GI50 ([14]; Homo sapiens, 786-0, 48 h): 369 nM
- GI50 ([15]; Homo sapiens, 48 h): 1320 nM
- GI50 ([16]; Homo sapiens): 1280 nM
- GI50 ([17]; Homo sapiens, MDA-MB-231, 48 h): 881 nM
- GI50 ([18]; Homo sapiens, Hs-578T, 48 h): 1920 nM

Structure (SMILES): CCCC[Si](C)(C)COc1ccc(C(=O)N[C@@H](Cc2ccc(-c3ccccc3)cc2)C(=O)NC2CC(C)(C)NC(C)(C)C2)cc1 [GH1504, N^α-{4-[(butyldimethylsilyl)methoxy]-benzoyl}-N-(2,2,6,6-tetramethylpiperidin-4-yl)-(4-phenyl-L-phenylalaninamide)]
- GI50 ([1]; Homo sapiens, HL-60, 48 h): 1220 nM
- GI50 ([2]; Homo sapiens, RPMI-8226, 48 h): 1950 nM
- GI50 ([3]; Homo sapiens, HOP-92, 48 h): 1370 nM
- GI50 ([4]; Homo sapiens): 1020 nM
- GI50 ([5]; Homo sapiens, SW-620, 48 h): 316 nM
- GI50 ([6]; Homo sapiens): 408 nM
- GI50 ([7]; Homo sapiens, SF-268, 48 h): 679 nM
- GI50 ([8]; Homo sapiens): 1170 nM
- GI50 ([9]; Homo sapiens, Malme-3M, 48 h): 1750 nM
- GI50 ([10]; Homo sapiens, MDA-MB-435, 48 h): 292 nM
- GI50 ([11]; Homo sapiens, OVCAR-3, 48 h): 202 nM
- GI50 ([12]; Homo sapiens, OVCAR-5, 48 h): 1810 nM
- GI50 ([13]; Homo sapiens, OVCAR-8, 48 h): 216 nM
- GI50 ([14]; Homo sapiens, 786-0, 48 h): 780 nM
- GI50 ([15]; Homo sapiens, 48 h): 402 nM
- GI50 ([16]; Homo sapiens): 1010 nM
- GI50 ([17]; Homo sapiens, MDA-MB-231, 48 h): 880 nM
- GI50 ([18]; Homo sapiens, Hs-578T, 48 h): 1850 nM
